Measurements from patent publication US10787512B2, “Melatonin monoclonal antibody, detection, methods and uses thereof” (SALIMETRICS, LLC, priority 2013, dated 2020).

Legend:
[1] = test system: rabbit monoclonal antibody to Melatonin; test: Cross reactivity in Rapid Melatonin ELISA (competitive, melatonin-HRP); assay type: binding; conditions: tested at 10 to 20-fold above the highest standard (50 pg/ml); predicted value as melatonin divided by actual concentration added
Procedure: A microtitre plate (described below) is coated with the rabbit monoclonal antibody to Melatonin. Melatonin in standards and unknowns competes with Melatonin linked to horseradish peroxidase for the antibody binding sites. After incubation unbound components are washed away. Bound Melatonin peroxidase is measured by the reaction of the peroxidase enzyme on the substrate tetramethylbenzidine (TMB). This reaction produces a blue color. A yellow color is formed after stopping the reaction with 2-molar sulfuric acid. Optical density is read on a standard plate reader at 450 nm. The amount of Melatonin peroxidase detected is inversely proportional to the amount of Melatonin present.
Microwell plates (CoStar High Binder) were coated overnight with 0.5 ug/ml goat anti-rabbit at room temperature [100 uL/well]; Coating Buffer-NaHCO3 (2.93 g)+Na2CO3 (1.59 g) in 1000 ml Water, pH 9.6 under controlled humidity. After washing the plates 3 times in a wash buffer comprised of PBS (phosphate buffered saline) with 0.05% Tween 20, the plates were then coated with the rabbit monoclonal at 10 ng/ml in PBS with 0.01% BSA (bovine serum albumin) overnight at room temperature under controlled humidity. The plates were again washed and coated with 0.5% Stabilcoat (Surmodics) containing 0.1% normal rabbit serum. After approximately 2 hours the plates were aspirated, dried and pouched.
A primary dilution of Melatonin-HRP was made at 50 ug/ml in […]® Conjugate stabilizer (Pierce-Thermo) for storage. At the time of the assay, it is then diluted to 100 ng/ml in a phosphate or Tris Buffered Saline, pH 7.2 with 1% BSA (Diluent).
Melatonin reference material from Cerilliant was diluted in diluent to 50 pg/ml. The standard curve was prepared by making 2× serial dilutions to 0.78 pg/ml in Diluent. Pipette: 100 ul Melatonin Standards/Samples/Controls to each well of the coated microwell plate. Pipette: 50 ul conjugate to each well. Incubate: 3 hr at 2-8° C. or Room Temperature with shaking (˜500 rpm). Wash: 4×300 uL, no soak. Pipette: 100 uL tetramethylbenzidine (TMB). Incubate: Room Temp for 30 min with shaking. Pipette: 50 uL 2M H2SO4. Mix 10-15 seconds. Read Plate: OD 450-630 nm.
Chemical compounds with structural similarity to melatonin were tested at levels 10 to 20-fold higher than the highest standard (50 pg/ml) as samples. The predicted value (as melatonin) was divided by the actual concentration added to calculate % cross-reactivity.

[2] = test system: rabbit monoclonal antibody to Melatonin; test: Specificity of Salimetrics Salivary Melatonin kit, cross reactants spiked into saliva; assay type: binding; conditions: spiked into saliva up to 2000 pg/ml; melatonin EC50 (B/Bo=0.5) divided by cross reactant EC50
Procedure: The Salimetrics™ Salivary Melatonin kit is a competitive immunoassay designed and validated for the quantitative measurement of salivary melatonin. The assay format and detection method are illustrated in FIG. 3, and are briefly summarized as follows: A microtitre plate is coated with rabbit monoclonal antibody to melatonin. Melatonin in standards, controls and unknowns compete with melatonin linked to horseradish peroxidase for the antibody binding sites on the microplate. After incubation, unbound components are washed away. Bound melatonin peroxidase is measured by the reaction of the horseradish peroxidase enzyme with the substrate tetramethylbenzidine (TMB). This reaction produces a blue color. A yellow color is formed after stopping the reaction with 2-molar acid solution. Optical density is read on a standard microplate reader at 450 nm-630 nm. The amount of melatonin-tagged peroxidase detected, as measured by the intensity of color, is inversely proportional to the amount of melatonin present in the sample.
Step 2: Keep the desired number of strips in the strip holder and place the remaining strips back in the foil pouch. Reseal the foil pouch with unused wells and desiccant. Store at 2-8° C. […] Step 3: Pipette 8 ml of Melatonin Assay Diluent into a disposable tube. (Scale down proportionally if not using a full plate). Set aside for Step 5. Step 4: Pipette 100 μL, of standards, controls, and unknown samples into appropriate wells. Standards, controls, and unknown samples should be assayed in duplicate. • Pipette 100 μL, of Melatonin Assay Diluent into 2 wells for the 0 Standard. Step 5: Dilute the enzyme conjugate 1:500 by adding 16 μL of the conjugate to the 8 ml of melatonin assay diluent prepared in Step 3. (Scale down proportionally if not using the entire plate.) Conjugate tube may be centrifuged for a few minutes to bring the liquid down to the tube bottom. Immediately mix the diluted conjugate solution and add 50 μL to each well using a multichannel pipette. Step 6: Place adhesive cover (provided) over plate. Mix plate constantly on a plate rotator at 500 rpm and incubate at 2-8° C. for a total of 3 hours. Step 7: Wash the plate 4 times with 1× wash buffer. A plate washer is recommended. However, washing may be done by gently squirting wash buffer into each well with a squirt bottle, or by pipetting 300 μL, of wash buffer into each well and then discarding the liquid by inverting the plate over a sink. After each wash, the plate should be thoroughly blotted on paper towels before turning upright. If using a plate washer, blotting is still recommended after the last wash. Step 8: Add 100 μL of TMB substrate solution to each well with a multichannel pipette. Step 9: Incubate the plate in the dark at room temperature for 30 minutes mixing constantly on a plate rotator at 500 rpm. Step 10: Add 50 μL of 2M stop solution with a multichannel pipette. Step 11: Mix on a plate rotator for 3 minutes at 500 rpm. Spillage may occur if mixing speed exceeds 600 rpm. If green color remains, continue mixing until green color turns to yellow. Be sure all wells have turned yellow. • Wipe off bottom of plate with a water-moistened, lint-free cloth and wipe dry. • Read in a plate reader at 450 nm with a secondary filter at 620 to 630 nm. Performance characteristics are not known without secondary or reference filter. Read the plate within 10 minutes of adding 2M stop solution. High and Low salivary Melatonin controls should be run with each assay. The control ranges established are to be used as a guide. Each laboratory should establish its own range. Variations between laboratories may be caused by differences in techniques and instrumentation.
Calculations • 1. Compute the average optical density (OD) for all duplicate wells. • 2. Calculate the percent bound (B/Bo) for each standard, control and unknown by dividing the OD of each well (B) by the average OD for the 0 (Bo). • 3. […]

[3] = Storage stability of melatonin in saliva samples; assay type: physicochemical; conditions: after 4 days at 2-8° C.
Procedure: Sample Handling and Preparation • After collection it is important to keep samples cold, to minimize bacterial growth in the specimen. Refrigerate sample within 30 minutes, and freeze at or below −20° C. within 4 hours of collection. […] On day of assay, thaw the saliva samples completely, vortex, and centrifuge at 1500×g (@3000 rpm) for 15 minutes. Centrifuging removes mucins and other particulate matter which may interfere with antibody binding, leading to falsely elevated results. Samples should be at room temperature before adding to assay plate. Pipette clear sample into appropriate wells. Re-freeze saliva samples as soon as possible after adding to the assay plate. Centrifuge/re-centrifuge saliva samples each time that they are thawed. Avoid more than 2 freeze-thaw cycles after the initial freeze/thaw.

Compound	Cross Reactivity (%) [1] [%]	Cross Reactivity [2] [%]	Decrease of Melatonin levels [3] [%]
COc1ccc2[nH]cc(CCN)c2c1 [5-methoxy tryptamine]	<0.05	<0.05	–
COc1ccc2[nH]cc(CCO)c2c1 [5-methoxy tryptophol]	1.30	1.25	–
COc1cc2c(CCNC(C)=O)c[nH]c2cc1Cl [6-chloro melatonin]	5.40	5.40	–
COc1cc2c(CCNC(C)=O)c[nH]c2cc1O [6-hydroxy melatonin]	<0.05	<0.05	–
COc1ccc(NC=O)c(C(=O)CCNC(C)=O)c1 [AFMK, N^1-acetyl-N^2-formyl-5-methoxykynuramine]	16.5	16.5	–
Cn1c(=O)c2c(ncn2C)n(C)c1=O [Caffeine]	<0.05	<0.05	–
N[C@@H](Cc1c[nH]c2ccccc12)C(=O)O [L-Tryptophan]	<0.05	<0.05	–
COc1ccc2[nH]cc(CCNC(C)=O)c2c1 [Melatonin, N-acetyl-5-methoxytryptamine]	–	–	≥ 20
CC(=O)NCCc1c[nH]c2ccc(O)cc12 [N-acetyl serotonin]	<0.05	<0.05	–
NCCc1c[nH]c2ccc(O)cc12 [Serotonin]	<0.05	<0.05	–
